For orientation: EC50 means the concentration that produces a half-maximal response.

This assay addresses recombinant DYRK1A kinase (Homo sapiens (Human), UniProt Q13627). In words: DYRK1A kinase assay (Ser/Thr 18 peptide Z-lyte FRET assay). The format is biochemical. To be noted: recombinant DYRK1A 0.25 µg/mL, ATP 15 µM, Ser/Thr peptide 18 4 µM, one hour at room temperature; table head prints EC50, method says IC50. The essentials:
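Z-lyte FRET format: 1 h room-temperature reaction of 15 µM ATP, 4 µM Ser/Thr 18 peptide and 0.25 µg/mL recombinant human DYRK1A, in duplicate over 11 compound concentrations up to 10 µM. IC50 was derived by non-linear regression of percent phosphorylation calculated from coumarin/fluorescein emission ratios.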

Turning to `O[C@H]1C[C@@H](Nc2ncc3c(-c4ccc5ncccc5c4)ccn3n2)C1` [Compound 1723, cis-3-((5-(Quinolin-6-yl)pyrrolo[2,1-f][1,2,4]triazin-2-yl)amino)cyclobutan-1-ol], the EC50 is 4 nM.
Regarding `Cc1nc2ccc(-c3ccn4nc(NC5CCN(CCF)CC5)ncc34)nc2n1CC(F)F` [Compound 1849], the EC50 was found to be 7 nM.
Then `O[C@H]1CC[C@@H](Nc2ncc3c(-c4ccc5ncccc5c4)ccn3n2)CC1` [Compound 1322, cis-4-((5-(Quinolin-6-yl)pyrrolo[2,1-f][1,2,4]triazin-2-yl)amino)cyclohexan-1-ol], with 393 nM; and `Cc1nc2ccc(-c3ccn4nc(N[C@H]5C[C@@](C)(O)C5)ncc34)nc2n1CC(F)F` [Compound 1819, cis-3-((5-(3-(2,2-Difluoroethyl)-2-methyl-3H-imidazo [4,5-b]pyridin-5-yl)pyrrolo[2,1-f] [1,2,4]triazin-2-yl)amino)-1-methylcyclobutan-1-ol], with 3 nM.
Consider `CC(=O)N1CC[C@@H](Nc2ncc3c(-c4ccc5nc(C)n(CC(F)F)c5n4)ccn3n2)[C@@H](F)C1` [Compound 1951, 1-((3S,4R)-4-((5-(3-(2,2-Difluoroethyl)-2-methyl-3H-imidazo[4,5-b]pyridin-5-yl)pyrrolo[2,1-f] [1,2,4]triazin-2-yl)amino)-3-fluoropiperidin-1-yl)ethan-1-one], for which the EC50 was 5 nM.
For `Cc1nc2ccc(-c3ccn4nc(NC5CCN(C(=O)[C@@H]6CC6(F)F)CC5)ncc34)nc2n1CC(F)F` [Compound 1917, (S)-(2,2-Difluorocyclopropyl)(4-((5-(3-(2,2-difluoroethyl)-2-methyl-3H-imidazo[4,5-b]pyridin-5-yl)pyrrolo[2,1-f] [1,2,4]triazin-2-yl)amino)piperidin-1-yl)methanone], the EC50 amounted to 9 nM.
As for `Cc1nc2ncc(-c3ccn4nc(NC5CCN(CC(F)F)CC5)ncc34)cc2n1CC(F)F` [Compound 1882, 5-(1-(2,2-Difluoroethyl)-2-methyl-1H-imidazo[4,5-b]pyridin-6-yl)-N-(1-(2,2-difluoroethyl)piperidin-4-yl)pyrrolo[2,1-f][1,2,4]triazin-2-amine], the figure is 4 nM; as for `COCCO[C@H]1CC[C@@H](Nc2ncc3c(-c4cnc5nccn5c4)ccn3n2)CC1` [Compound 265, 5-(Imidazo[1,2-a]pyrimidin-6-yl)-N-(cis-4-(2-methoxyethoxy)cyclohexyl) pyrrolo[2,1-f] [1,2,4]triazin-2-amine], 6 nM; as for `CC(=O)N[C@]1(C)C[C@@H](Nc2ncc3c(-c4ccc5nccnc5c4)ccn3n2)C1` [Compound 1981, N-((1r,3r)-1-methyl-3-((5-(quinoxalin-6-yl)pyrrolo[2,1-f][1,2,4]triazin-2-yl)amino)cyclobutyl)acetamide], 2 nM.
Then `Cc1nc2ccc(-c3ccn4nc(NC5CCN(CC(F)F)CC5)ncc34)nc2n1CC(F)F` [Compound 1850, 5-(3-(2,2-Difluoroethyl)-2-methyl-3H-imidazo[4,5-b]pyridin-5-yl)-N-(1-(2,2-difluoroethyl)piperidin-4-yl)pyrrolo[2,1-f][1,2,4]triazin-2-amine], with 8 nM; and `CC(=O)N[C@]1(C)C[C@@H](Nc2ncc3c(-c4ccc5nc(C)n(CC(F)F)c5c4)ccn3n2)C1` [Compound 1920, N-((1r,3r)-3-((5-(1-(2,2-Difluoroethyl)-2-methyl-1H-benzo[d]imidazol-6-yl)pyrrolo[2,1-f] [1,2,4]triazin-2-yl)amino)-1-methylcyclobutyl)acetamide], with 1 nM; and `CC(C)(F)CNc1ncc2c(-c3cnc4ncc(Cl)n4c3)ccn2n1` [Compound 287, 5-(3-Chloroimidazo[1,2-a]pyrimidin-6-yl)-N-(2-fluoro-2-methylpropyl) pyrrolo[2,1-f] [1,2,4]triazin-2-amine], with 170 nM.
Regarding `Cc1nc2ccc(-c3ccn4nc(N[C@H]5CCN(C)C[C@H]5F)ncc34)nc2n1CC(F)F` [Compound 1856], the EC50 came to 6 nM.
Turning to `CC(F)(F)CNc1ncc2c(-c3ccc4nccn4c3)ccn2n1` [Compound 4, N-(2,2-Difluoropropyl)-5-(imidazo [1,2-a]pyridin-6-yl)pyrrolo[2,1-f][1,2,4] triazin-2-amine], the EC50 was 73 nM.
Take `Cc1nc2ccc(-c3ccn4nc(NC5CCC6(CC5)COC6)ncc34)nc2n1CC(F)F` [Compound 1961, 5-(3-(2,2-Difluoroethyl)-2-methyl-3H-imidazo[4,5-b]pyridin-5-yl)-N-(2-oxaspiro[3.5]nonan-7-yl)pyrrolo[2,1-f][1,2,4]triazin-2-amine]: the EC50 turned out to be 3 nM.
Regarding `[2H]C([2H])([2H])O[C@H]1CC[C@@H](Nc2ncc3c(-c4ccc5nc(C)n(CC(F)F)c5n4)ccn3n2)CC1` [Compound 1803, 5-(3-(2,2-Difluoroethyl)-2-methyl-3H-imidazo[4,5-b]pyridin-5-yl)-N-(cis-4-(methoxy-d3)cyclohexyl)pyrrolo[2,1-f][1,2,4]triazin-2-amine], the EC50 worked out at 3 nM.
For `COCCO[C@H]1C[C@@H](Nc2ncc3c(-c4ccc5ncccc5c4)ccn3n2)C1` [Compound 1309, N-(cis-3-(2-Methoxyethoxy)cyclobutyl)-5-(quinolin-6-yl)pyrrolo[2,1-f][1,2,4]triazin-2-amine], the EC50 stood at 3 nM.
As for `CC(C)OCCNc1ncc2c(-c3ccc4nccn4c3)ccn2n1` [Compound 11, 5-(Imidazo[1,2-a]pyridin-6-yl)-N-(2-isopropoxyethyl)pyrrolo[2,1-f][1,2,4] triazin-2-amine], the EC50 is 116 nM.
Regarding `CCO[C@H]1C[C@@H](Nc2ncc3c(-c4cnc5nccn5c4)ccn3n2)C1` [Compound 242, N-(cis-3-Ethoxycyclobutyl)-5-(imidazo[1,2-a]pyrimidin-6-yl)pyrrolo[2,1-f] [1,2,4]triazin-2-amine], the EC50 came out at 5 nM.
As for `Cc1nc2ncc(-c3ccn4nc(N[C@H]5CC[C@@H](O)CC5)ncc34)cc2n1CC(F)F` [Compound 683, cis-4-((5-(1-(2,2-Difluoroethyl)-2-methyl-1H-imidazo[4,5-b]pyridin-6-yl)pyrrolo[2,1-f][1,2,4]triazin-2-yl)amino)cyclohexan-1-ol], the figure is 6 nM; as for `Cc1nc2ccc(-c3ccn4nc(N[C@H]5CC[C@@](C)(O)CC5)ncc34)nc2n1CC(C)C` [Compound 1829, cis-4-((5-(3-Isobutyl-2-methyl-3H-imidazo[4,5-b]pyridin-5-yl)pyrrolo[2,1-f] [1,2,4]triazin-2-yl)amino)-1-methylcyclohexan-1-ol], 33 nM; as for `c1cn2cc(-c3ccn4nc(NCC5CC5)ncc34)ccc2n1` [Compound 16, N-(Cyclopropylmethyl)-5-(imidazo[1,2-a]pyridin-6-yl)pyrrolo[2,1-f][1,2,4] triazin-2-amine], 48 nM.
Turning to `CCOC(=O)[C@H]1CC[C@@H](Nc2ncc3c(-c4ccc5nc(C)n(CC(F)F)c5n4)ccn3n2)CC1` [Compound 1843, Ethyl cis-4-((5-(3-(2,2-difluoroethyl)-2-methyl-3H-imidazo[4,5-b]pyridin-5-yl)pyrrolo[2,1-f][1,2,4]triazin-2-yl)amino)cyclohexane-1-carboxylate], the EC50 was 33 nM.
Then `Cc1nc2ccc(-c3ccn4nc(NCC5CN(C)CCO5)ncc34)nc2n1CC(F)F` (stereo not shown) [Compound 1848, 5-(3-(2,2-Difluoroethyl)-2-methyl-3H-imidazo[4,5-b]pyridin-5-yl)-N-((4-methylmorpholin-2-yl)methyl)pyrrolo[2,1-f][1,2,4]triazin-2-amine], with 5 nM; and `Cc1nc2ccc(-c3ccn4nc(N[C@@H]5CN(C)C[C@@H]5F)ncc34)nc2n1CC(F)F` [Compound 1900], with 5 nM.
Turning to `Cc1nc2ccc(-c3ccn4nc(N[C@@H]5CCN(C6COC6)C[C@@H]5F)ncc34)nc2n1CC(F)F` [Compound 1954, 5-(3-(2,2-Difluoroethyl)-2-methyl-3H-imidazo[4,5-b]pyridin-5-yl)-N-((3 S,4R)-3-fluoro-1-(oxetan-3-yl)piperidin-4-yl)pyrrolo[2,1-f] [1,2,4]triazin-2-amine], the EC50 was found to be 6 nM.
As for `CC(C)(F)CNc1ncc2c(-c3ccc4nccn4n3)ccn2n1` [Compound 145, N-(2-Fluoro-2-methylpropyl)-5-(imidazo [1,2-b]pyridazin-6-yl)pyrrolo[2,1-f] [1,2,4]triazin-2-amine], the figure is 45 nM.
On to `Cc1nc2ncc(-c3ccn4nc(N[C@H]5CC[C@@H](OC(F)(F)F)CC5)ncc34)cc2n1CC(F)F` [Compound 1786, 5-(1-(2,2-Difluoroethyl)-2-methyl-1H-imidazo[4,5-b]pyridin-6-yl)-N-(cis-4-(trifluoromethoxy)cyclohexyl)pyrrolo[2,1-f][1,2,4]triazin-2-amine], for which the EC50 was 5 nM.
In the case of `Cc1nc2ncc(-c3ccn4nc(N[C@H]5CC[C@@](C)(O)CC5)ncc34)nc2n1CC(F)F` [Compound 1974, cis-4-((5-(1-(2,2-difluoroethyl)-2-methyl-1H-imidazo[4,5-b]pyrazin-6-yl)pyrrolo[2,1-f][1,2,4]triazin-2-yl)amino)-1-methylcyclohexan-1-ol], the EC50 was found to be 2 nM.
As for `Cc1nc2ccc(-c3ccn4nc(N[C@H]5CC[C@@](C)(O)CC5)ncc34)nc2n1CC(F)F` [Compound 1110, (1s,4s)-4-((5-(3-(2,2-Difluoroethyl)-2-methyl-3H-imidazo[4,5-b]pyridin-5-yl)pyrrolo[2,1-f][1,2,4]triazin-2-yl)amino)-1-methylcyclohexan-1-ol], the figure is 3 nM; as for `Cc1nc2ncc(-c3ccn4nc(NC5CCN(CCF)CC5)ncc34)cc2n1CC(F)F` [Compound 1881, 5-(1-(2,2-Difluoroethyl)-2-methyl-1H-imidazo[4,5-b]pyridin-6-yl)-N-(1-(2-fluoroethyl)piperidin-4-yl)pyrrolo[2,1-f][1,2,4]triazin-2-amine], 2 nM.
